Key:
[1] = test system: APP/PS1 mice; test: GFAP immunofluorescent staining of brain tissues; type: in vivo; details: cortex and hippocampus, HYP nasal, 8 weeks
Protocol: All animal care and experimental procedures were performed in accordance with the “Institutional Animal Care and User Committee Guidelines” of the Macau University of Science and Technology. APP/PSEN1 (APP/PS1) mice (N000175) were purchased from the Nanjing Institute of Biomedical Sciences, Nanjing University, China, weighing 25 ± 5 g. The animals were housed in a temperature-controlled room with a 12 h light/dark cycle and given ad libitum food and water. Male mice were randomly divided into the following 6 experimental groups. (a) wild-type group (n = 6), (b) APP/PS1 group (n = 6), (c) HYP (20 mg/kg group) (n = 7), (d) HYP (40 mg/kg) group (n = 8), (e) HYP (80 mg/kg) group (n = 8) and (f) memantine (MEM) (10 mg/kg) positive control group (n = 8). HYP was dissolved in the solvent containing 10% DMSO, 40% PEG300 and 5% Tween-80 in PBS, and administrated via nasal injection for every 3 days with a volume of 0.5 μL/g of body weight for 8 consecutive weeks. Brain tissues from all treatment groups were fixed and embedded in paraffin for microtome sectioning and immunofluorescence staining. […] The coverslips were then mounted with FluorSave™ mounting media (Calbiochem, San Diego, CA, USA) for fluorescence imaging. […]

[2] = test system: APP/PS1 mice; test: HE staining of hippocampus; type: in vivo; details: hippocampus CA1, CA3, DG, nasal HYP
Protocol: All animal care and experimental procedures were performed in accordance with the “Institutional Animal Care and User Committee Guidelines” of the Macau University of Science and Technology. APP/PSEN1 (APP/PS1) mice (N000175) were purchased from the Nanjing Institute of Biomedical Sciences, Nanjing University, China, weighing 25 ± 5 g. The animals were housed in a temperature-controlled room with a 12 h light/dark cycle and given ad libitum food and water. Male mice were randomly divided into the following 6 experimental groups. (a) wild-type group (n = 6), (b) APP/PS1 group (n = 6), (c) HYP (20 mg/kg group) (n = 7), (d) HYP (40 mg/kg) group (n = 8), (e) HYP (80 mg/kg) group (n = 8) and (f) memantine (MEM) (10 mg/kg) positive control group (n = 8). HYP was dissolved in the solvent containing 10% DMSO, 40% PEG300 and 5% Tween-80 in PBS, and administrated via nasal injection for every 3 days with a volume of 0.5 μL/g of body weight for 8 consecutive weeks. Pathological assessment on the cornuammonis region 1 (CA1), cornuammonis region 3 (CA3) and dentate gyrus region (DG) regions of the mouse hippocampus was done by HE staining. Brain sections were dehydrated with 70%, 80% and 90% alcohol respectively. […]

## O=c1c(O[C@@H]2O[C@H](CO)[C@H](O)[C@H](O)[C@H]2O)c(-c2ccc(O)c(O)c2)oc2cc(O)cc(O)c12 [HYP, Quercetin-3-O-β-D-galactopyranoside]
[1]
  level of GFAP: decreased the level of GFAP in both the cortex and hippocampus
[2]
  neuronal cell morphology (HE staining): neuronal cell morphological changes were minimal

From PMC9975698, “Hyperoside alleviates toxicity of β-amyloid via endoplasmic reticulum-mitochondrial calcium signal transduction cascade in APP/PS1 double transgenic Alzheimer's disease mice” (Redox Biology, 2023)
